Test in all cases: inhibition of tumour cell growth, NCI panel, 48 h
Experiment [1] has as its system OVCAR-5 ovarian.
Experiment [2] relates to SR leukemia.
Experiment [3] deals with LOX IMVI melanoma.
In experiment [4] the test system is HCC-2998 colon.
Experiment [5] has as its system PC-3 prostate.
For experiment [6], the system named is SN12C renal.
Experiment [7] has as its system SK-MEL-28 melanoma.
Experiment [8] deals with HL-60(TB) leukemia.
In experiment [9] the test system is T-47D breast.

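Interpolation was linear, between the two tested concentrations surrounding the appropriate level; five concentrations were tested over 48 hours in 96-well plates. GI50 is the concentration that inhibits growth by half. TGI denotes the concentration required for complete inhibition of growth.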 Bounds are passed on as bounds.

Take `CCOP(C)(=O)/C(Cc1ccc(OC)c(OC)c1)=N\O` (centres undefined): the TGI in experiment [1], in experiment [2], in [3], in [4], in experiment [5] and in experiment [6] was more than 100 µM in each case. For the same compound, the TGI in [7], in [8] and in experiment [9] was more than 100 µM each time.
Regarding `CCCCN1C(=O)CS/C1=N/Nc1nc2c([nH]1)c(=O)n(C)c(=O)n2C`, the TGI in experiment [1] is 59.4 µM; in experiment [2], 38.1 µM; in experiment [4], more than 100 µM; in [5] it was more than 100 µM; in experiment [6] it was more than 100 µM; in experiment [7] it was more than 100 µM. Besides, the TGI in experiment [8] and in experiment [9] was more than 100 µM each time.
With `COc1cc(Nc2nc3ccccc3nc2C(C)C)cc(OC)c1OC`, the TGI in [1], in [2], in experiment [3], in experiment [4], in [5] and in experiment [6] was more than 100 µM throughout. Moreover, the TGI in experiment [7], in experiment [8] and in experiment [9] was more than 100 µM throughout.
For `CC(C)(SCc1ccccc1)C(N)C(=O)O` (centres undefined), the TGI in [1], in [2], in [3], in [5], in experiment [6] and in [7] was more than 100 µM each time. Besides, the TGI in experiment [8] and in experiment [9] was more than 100 µM throughout.
On to `CC[C@H]1C=CCC[C@@]2(C[C@@H]3CC[C@@H]4[C@H](C(=O)OCCCCCCCCCCCCCCCC(=O)N(CCCNC(C)=O)C[C@H](CCNC(C)=O)OC(C)=O)[C@]5(CCC[C@@H](C)O5)NC(=[N+]34)N2)O1`, for which the TGI in experiment [1] was found to be 1.8 µM; in experiment [2] it was 0.416 µM; in experiment [3] it was 0.0709 µM; in experiment [4], 0.221 µM; in experiment [5] it was 1.18 µM; in experiment [6], 2.1 µM. Moreover, the TGI in experiment [7] stood at 2.52 µM; in experiment [8], 1.34 µM; in [9], 2.77 µM.
With `Oc1ccccc1-c1nn2c(CCCCCCCCc3nnc4sc(-c5ccccc5O)nn34)nnc2s1`, the TGI was more than 76.6 µM in [1]; more than 48.7 µM in [2]; more than 64.1 µM in experiment [3]; more than 100 µM in experiment [4]; more than 100 µM in experiment [5]; more than 100 µM in [6]. The TGI in [7] was more than 100 µM; in experiment [8], 77.9 µM; in experiment [9], 52.1 µM.
As to `Cc1cc(C)c2c(=O)cc(-c3ccc4ccccc4c3)[nH]c2n1`, the TGI in experiment [1] is more than 100 µM; in experiment [2], 18.6 µM; in [3], more than 74.9 µM; in [4] it was more than 81.8 µM; in [5] it was more than 100 µM; in experiment [6], more than 100 µM. In addition, the TGI was more than 100 µM in [7], 16.4 µM in experiment [8] and more than 100 µM in experiment [9].
For the compound `CC(=O)OC(=C(C#N)C#N)c1nccnc1C(C)=O`, the TGI in experiment [1], in experiment [2], in experiment [3], in experiment [4], in [5] and in experiment [6] was more than 20 µM each time. The TGI in [7], in [8] and in experiment [9] was more than 20 µM in each case.
Regarding `CC(=O)c1ccccc1NS(=O)(=O)c1ccc2nc(C)n(NS(=O)(=O)c3ccccc3C(C)=O)c(=O)c2c1`, the TGI in [1], in experiment [2], in [3], in experiment [4], in experiment [5] and in [6] was more than 100 µM throughout. In addition, the TGI in experiment [7], in experiment [8] and in experiment [9] was more than 100 µM in each case.
With `COc1ccc(-c2nc3cc(C(F)(F)F)ccc3n2CC2CCCN3CCCCC23)cc1` (centres undefined), the TGI in [1] stood at 62.9 µM; in experiment [2] it was 31.3 µM; in experiment [3] it was 28.3 µM; in experiment [4], 24.5 µM; in [5] it was 26.5 µM; in [7], 28.2 µM. For the same compound, the TGI worked out at 30.6 µM in [8] and 48.2 µM in [9].
With `O=P1(Oc2ccccc2)NCc2ncccc2O1` (centres undefined), the TGI in experiment [1], in experiment [2], in experiment [3], in experiment [4], in experiment [5] and in experiment [6] was more than 100 µM in each case. For the same compound, the TGI in experiment [7] and in experiment [9] was more than 100 µM each time.
Turning to `COc1ccccc1/C=C/c1nc2ccccc2o1`, the TGI in experiment [1], in experiment [2], in [3], in experiment [4], in experiment [5] and in experiment [6] was more than 10 µM throughout. Moreover, the TGI in experiment [7] and in experiment [9] was more than 10 µM each time.
In the case of `Brc1ccc(-c2cc(-c3ccc4c(c3)OCO4)c(-c3cccs3)n2Cc2ccccc2)cc1`, the TGI in [2], in [4], in experiment [5], in [6], in [7] and in experiment [8] was more than 100 µM throughout. In addition, in experiment [9], the TGI was more than 100 µM.
Turning to `C/C(=C1\C(=O)C(c2ccccc2)N(c2ccccc2)C1=O)c1ccc(Cl)cc1` (centres undefined), the TGI in experiment [2] stood at 53.2 µM; in experiment [3], 28.5 µM; in experiment [4], 96.1 µM; in [5] it was 28.2 µM; in [6] it was 86 µM; in [7], 31.2 µM. In addition, the TGI in experiment [8] amounted to 69.1 µM; in experiment [9], 45.3 µM.
`O=C(c1ccccc1)c1nn(-c2ccccc2)c2nc3nc(-c4ccccc4)cc(=O)n3nc12`: the GI50 in [2] is 17.6 µM; in experiment [3] it was 25.8 µM; in [4], 32.6 µM; in experiment [5], 32.4 µM; in experiment [6] it was 22.7 µM; in experiment [7], 37.8 µM. In addition, the GI50 in experiment [8] is 15.2 µM; in experiment [9], 28.9 µM. Besides, the TGI was 40.4 µM in experiment [2]; 78.7 µM in experiment [3]; 60.2 µM in experiment [4]; more than 100 µM in experiment [5]; 53.2 µM in experiment [6]; more than 100 µM in [7]. Further, the TGI in [8] came out at 42.4 µM; in experiment [9], 99.5 µM.

The values are drawn from PubChem BioAssay (NCI).
